Assay results published in US20030138375A1, “Individualization of therapy with Alzheimer's disease agents” (priority 2001, published 2003).
Where a name gives a salt, the structure may show the parent alone. Marks after values point to notes of the source that are not given here.

Experiments:
[1] = test system: AAMU-Ab; assay: Competitive antigen ELISA, cross-reactivity of AAMU-Ab; assay type: binding, rabbit; conditions: 0 = absence of inhibition or inhibition no higher than 40% at 5×10^−3 M
Description: Buffers and water without additives are filtered through millipore filters and kept for 1 week. BSA, antibodies, Tween™ 20 and horse radish peroxidase conjugates are added to these buffers and water just prior to use. Urine samples are usually collected 4 hours after drinking a cup of coffee (instant or brewed with approximately 100 mg of caffeine per cup) and stored at −80° C. The urine samples are diluted 10 times with sodium phosphate buffer (620 mosm, pH 7.50) and are subsequently diluted with water to give concentrations of AAMU and 1X no higher than 3×10^−6 M in the ELISA. All the pipettings are done with an eight-channel pipette, except those of the antibody and sample solutions. Starting with the last well, 100 μL of a carbonate buffer (100 mM, pH 9.6) containing 2.5 μg mL^−1 antibodies are added to each well. After 90 min. at room temperature, the wells are washed three times with 100 mL of TPB: isotonic sodium phosphate buffer (310 mosm, pH 7.50) containing 0.05% Tween™ 20.
After the initial wash, unoccupied sites are blocked by incubation for 90 min. at room temperature with 100 μL TBP containing 3% BSA. The wells are washed four times with 100 μL TPB. […] The microplate is gently shaken with an orbital shaker at room temperature for 3-4 hours. The wells are washed three times with 100 μL TPB containing 1% BSA and three times with water containing 0.05% Tween™ 20. […]

[2] = cited from earlier work
[3] = test system: individuals with mild to moderate Alzheimer's disease; conditions: cited from earlier work

In the case of `O=c1[nH]c(=O)c2[nH]cnc2[nH]1` [Xanthine], the “% Cross-Reaction AAMU-Ab” value [1] is reported as 0^a %.

For `COc1cc2c(cc1O)C(=O)C(CC1CCN(Cc3ccccc3)CC1)C2` (stereo not drawn) [6-O-desmethyl donepezil], the “plasma radioactivity, expressed as a percent of the administered dose” value ([2]; 14C-labeled donepezil) is listed as 11% and the “plasma concentration relative to donepezil” value ([2]; in vivo) is listed as “about 20%”.

For `COc1cc2c(cc1OC)C(=O)C(CC1CCN(Cc3ccccc3)CC1)C2` (racemic) [Donepezil, (±)-2,3-dihydro-5,6-dimethoxy-2-[[1-(phenylmethyl)-4-piperidinyl]methyl] -1H-inden-1-onehydrochloride], the “effect size on the ADAS-Cog vs placebo” value ([3]; 5 mg or 10 mg per day, over 24 weeks) is listed as “about 3 points”.

In the case of `Nc1c2c(nc3ccccc13)CCCC2` [Tacrine], the “improvement in cognitive function on the ADAS-Cog” value ([3]; 40 mg four times daily, over 12 weeks) is given as “about 2 points” and the “persons who had to discontinue the drug due to side effects” value ([3]; human, in vivo) is given as “up to half”.
